For 53 molecules, IC50 results are on record in ChEMBL document CHEMBL5729376, “SSAO inhibitors and use thereof” (2022).

Each structure is given as a SMILES string.

For assay [1], the target named is T1, Amine oxidase [flavin-containing] B (Homo sapiens, UniProt P27338).
T1 sequence (P27338 whole entry): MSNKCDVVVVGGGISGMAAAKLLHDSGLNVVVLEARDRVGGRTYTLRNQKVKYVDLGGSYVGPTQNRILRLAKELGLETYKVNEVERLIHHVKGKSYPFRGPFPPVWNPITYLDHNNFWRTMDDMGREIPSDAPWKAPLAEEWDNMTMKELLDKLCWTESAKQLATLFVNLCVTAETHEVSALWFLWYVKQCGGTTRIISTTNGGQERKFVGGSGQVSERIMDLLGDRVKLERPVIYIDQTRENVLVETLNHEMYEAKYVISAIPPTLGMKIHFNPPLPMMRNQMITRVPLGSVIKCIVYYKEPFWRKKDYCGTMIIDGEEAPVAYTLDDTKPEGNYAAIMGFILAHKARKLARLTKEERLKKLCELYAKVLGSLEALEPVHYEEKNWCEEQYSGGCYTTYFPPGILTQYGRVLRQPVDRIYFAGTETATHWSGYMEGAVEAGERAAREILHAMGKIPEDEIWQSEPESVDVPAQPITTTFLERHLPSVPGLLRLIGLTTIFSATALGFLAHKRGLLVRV
In words: (§1) SSAO Activity Assay: Amine oxidase activity of recombinant hSSAO, hMAO-A, and hMAO-B isoforms are measured using the MAO-Glo assay kit (Promega, V1402). Ten nL test compounds (with DMSO as vehicle, 0.1% v/v for hSSAO, hMAO-A and hMAO-B) were added into assay plates by Echo, and pre-incubated with 5 μL of enzyme for 30 mins at room temperature before the addition of 5 μL of luminogenic substrate. The substrate concentration is 40 μM for human recombinant SSAO, 40 μM for human recombinant MAO-A, and 4 μM for human recombinant MAO-B. The hSSAO and hMAO-A assays were conducted in the MAO-A reaction buffer in the kit, and the MAO-B assay was conducted in the MAO-B reaction buffer. Oxidation of the substrate was conducted for 1 hr, before the addition of detecting reagent according the manufacture's protocol. The IC50 value of the tested compounds was calculated by fitting the dose response curve using a 4-parameter non-linear regression routine.

Assay [2] deals with T2, Amine oxidase [flavin-containing] A (Homo sapiens, UniProt P21397).
T2 sequence (P21397 whole entry): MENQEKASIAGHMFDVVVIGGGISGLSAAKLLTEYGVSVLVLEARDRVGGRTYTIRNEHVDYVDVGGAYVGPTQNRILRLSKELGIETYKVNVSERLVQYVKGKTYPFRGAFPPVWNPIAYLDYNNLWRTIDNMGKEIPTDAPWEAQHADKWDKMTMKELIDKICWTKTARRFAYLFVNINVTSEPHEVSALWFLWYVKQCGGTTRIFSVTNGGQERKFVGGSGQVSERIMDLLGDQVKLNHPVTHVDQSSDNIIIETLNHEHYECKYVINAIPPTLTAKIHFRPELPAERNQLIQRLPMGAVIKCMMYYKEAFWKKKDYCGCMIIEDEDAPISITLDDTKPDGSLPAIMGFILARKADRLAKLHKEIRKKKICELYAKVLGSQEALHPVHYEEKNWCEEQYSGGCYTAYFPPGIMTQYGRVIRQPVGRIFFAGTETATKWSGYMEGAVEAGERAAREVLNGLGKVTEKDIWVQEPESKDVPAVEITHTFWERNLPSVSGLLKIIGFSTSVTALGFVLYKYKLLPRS
Described as §1.

Take `CC(C)(C)C(=O)N1CCC(CS(=O)(=O)c2ccc(OC/C(=C/F)CN)cc2)CC1`: the 50% inhibitory concentration (IC50) in assay [1] and in assay [2] was over 30 µM in each case.
On to `NC/C(=C\F)COc1ccc(S(=O)(=O)CC2CCOCC2)c(F)c1`, for which the half-maximal inhibitory concentration (IC50) in assay [1] and in assay [2] was under 10 µM each time.
Consider `NC/C(=C\F)COc1ccc(S(=O)(=O)COCC2CCOCC2)cc1`, for which the IC50 (as a rule, the point on the concentration scale where inhibition reaches its midpoint) is 10 to 30 µM in assay [1] and over 30 µM in assay [2].
On to `COCC(COC)OCS(=O)(=O)c1ccc(OC/C(=C/F)CN)cc1`, for which the IC50 in assay [1] was under 10 µM; in assay [2], over 30 µM.
For the molecule `CO[C@H]1CC[C@@H](CS(=O)(=O)c2ccc(OC/C(=C/F)CN)cc2)CC1`, the IC50 in assay [1] and in assay [2] was 10 to 30 µM in each case.
With `CC(C)(C)C(=O)NC12CCC(CS(=O)(=O)c3ccc(OC/C(=C/F)CN)cc3)(CC1)C2`, the IC50 in assay [2] was under 10 µM.
With `CC1(C)COC(CS(=O)(=O)c2ccc(OC/C(=C/F)CN)cc2)CO1` (configuration not stated), the results for the half-maximal inhibitory concentration (IC50) in assay [1] and in assay [2] were under 10 µM and over 30 µM, respectively.
Consider `NC/C(=C\F)COc1ccc(S(=O)(=O)CC23CCC(C4(O)CC4)(CC2)CC3)cc1`, for which, in assay [2], the IC50 was over 30 µM.
Regarding `NC/C(=C\F)COc1ccc(S(=O)(=O)C[C@H]2CC[C@H](O)CC2)cc1`, the 50% inhibitory concentration (IC50) in assay [1] and in assay [2] was 10 to 30 µM each time.
As for `COCCOCS(=O)(=O)c1ccc(OC/C(=C/F)CN)cc1`, the 50% inhibitory concentration (IC50) in assay [1] and in assay [2] was over 30 µM throughout.
As for `N#CC1(CS(=O)(=O)c2ccc(OC/C(=C/F)CN)cc2)CCOCC1`, in assay [1], the IC50 was under 10 µM.
For the molecule `COCC(COC)CS(=O)(=O)c1ccc(OC/C(=C/F)CN)cc1`, the IC50 in assay [1] is under 10 µM; in assay [2] it was over 30 µM.
For `NC/C(=C\F)COc1ccc(S(=O)(=O)CC2CCN(C(=O)C3CC3)CC2)c(Cl)c1`, the IC50 in assay [1] and in assay [2] was over 30 µM each time.
With `COC1(CS(=O)(=O)c2ccc(OC/C(=C/F)CN)cc2)CCOCC1`, the IC50 in assay [1] was under 10 µM; in assay [2], over 30 µM.
As for `NC/C(=C\F)COc1ccc(S(=O)(=O)CC23CCC(O)(CC2)CC3)cc1`, the half-maximal inhibitory concentration (IC50) in assay [2] is over 30 µM.
On the same count and under the same terms, then `NC/C(=C\F)COc1ccc(S(=O)(=O)CC23CCC(NC(=O)C4CC4)(CC2)CC3)cc1`, with over 30 µM; and `NC/C(=C\F)COc1ccc(S(=O)(=O)COCC2CCN(C(=O)C3(C(F)(F)F)CC3)CC2)cc1`, with over 30 µM.
Turning to `NC/C(=C\F)COc1ccc(S(=O)(=O)COC2CCN(C(=O)C3CCCC3)CC2)cc1`, the IC50 in assay [1] and in assay [2] was over 30 µM each time.
With `CC(C)C(=O)Nc1ccc(CS(=O)(=O)c2ccc(OC/C(=C/F)CN)cc2)cc1`, the IC50 is under 10 µM in assay [1] and over 30 µM in assay [2].
As for `CC(C)C(=O)N1CC(CS(=O)(=O)c2ccc(OC/C(=C/F)CN)cc2)C1`, the 50% inhibitory concentration (IC50) in assay [1] was under 10 µM; in assay [2], over 30 µM.
In the case of `CC(C)(C)C(=O)N1CCN(CS(=O)(=O)c2ccc(OC/C(=C/F)CN)cc2)C(=O)C1`, the IC50 in assay [1] was under 10 µM.
As for `NC/C(=C\F)COc1ccc(S(=O)(=O)COC2CCOCC2)cc1`, the values for the IC50 in assay [1] and in assay [2] were under 10 µM and over 30 µM, respectively.
As to `NC/C(=C\F)COc1ccc(S(=O)(=O)CC23CCC(C(=O)NC4CCC4)(CC2)CC3)cc1`, in assay [2], the concentration for half-maximal inhibition (IC50) is over 30 µM.
Regarding `CC1CCN(C23CCC(CS(=O)(=O)c4ccc(OC/C(=C/F)CN)cc4)(CC2)CC3)C1=O` (configuration not stated), the IC50 in assay [2] is over 30 µM.
Consider `NC/C(=C\F)COc1ccc(S(=O)(=O)C[C@H]2CCOC2)cc1`, for which the IC50 was under 10 µM in assay [1] and 10 to 30 µM in assay [2].
In the case of `NC/C(=C\F)COc1ccc(S(=O)(=O)CC2CCOCC2)cc1`, the IC50 in assay [1] was under 10 µM; in assay [2] it was over 30 µM.
`N#CC1(COCS(=O)(=O)c2ccc(OC/C(=C/F)CN)cc2)CCOCC1`: the IC50 in assay [1] and in assay [2] was over 30 µM throughout.
With `CC(C)C(=O)N1CCC(C)(CS(=O)(=O)c2ccc(OC/C(=C/F)CN)cc2)CC1`, the IC50 in assay [1] and in assay [2] was over 30 µM each time.
In the case of `CC1(CS(=O)(=O)c2ccc(OC/C(=C/F)CN)cc2)CCN(C(=O)C2(C)CC2)CC1`, the concentration for half-maximal inhibition (IC50) in assay [1] is under 10 µM.
As for `CC1(CS(=O)(=O)c2ccc(OC/C(=C/F)CN)cc2)CCOCC1`, the half-inhibitory concentration (IC50) in assay [1] was under 10 µM; in assay [2], over 30 µM.
`NC/C(=C\F)COc1ccc(S(=O)(=O)CC2CCOCC2)c(Cl)c1`: the half-maximal inhibitory concentration (IC50) in assay [1] was under 10 µM.
For the molecule `CC(C)C(=O)N1CCC(C)(COCS(=O)(=O)c2ccc(OC/C(=C/F)CN)cc2)CC1`, the 50% inhibitory concentration (IC50) was under 10 µM in assay [1] and over 30 µM in assay [2].
On the same counts, the results for `NC/C(=C\F)COc1ccc(S(=O)(=O)Cc2ccc(C(=O)N3CCCC3)cc2)cc1` are over 30 µM and over 30 µM.
Consider `CO[C@H]1CC[C@H](CS(=O)(=O)c2ccc(OC/C(=C/F)CN)cc2)CC1`, for which the concentration for half-maximal inhibition (IC50) is under 10 µM in assay [1] and 10 to 30 µM in assay [2].
`CC(C)C(=O)N(C)CC(C)(C)CS(=O)(=O)c1ccc(OC/C(=C/F)CN)cc1`: in assay [2], the IC50 was over 30 µM.
Consider `NC/C(=C\F)COc1ccc(S(=O)(=O)CC2CCN(C(=O)C34CC(F)(C3)C4)CC2)cc1`, for which the half-inhibitory concentration (IC50) in assay [1] is under 10 µM.
Consider `CC1(COCS(=O)(=O)c2ccc(OC/C(=C/F)CN)cc2)CCOCC1`, for which the IC50 was under 10 µM in assay [1] and over 30 µM in assay [2].
For the molecule `NC/C(=C\F)COc1ccc(S(=O)(=O)CC23CCC(C4(NC(=O)C5CC5)CC4)(CC2)CC3)cc1`, the IC50 in assay [1] and in assay [2] was over 30 µM in each case.
For the molecule `CC1(CS(=O)(=O)c2ccc(OC/C(=C/F)CN)cc2F)CCOCC1`, the IC50 in assay [1] and in assay [2] was under 10 µM in each case.
Consider `CC1(COCS(=O)(=O)c2ccc(OC/C(=C/F)CN)cc2)CCN(C(=O)C(C)(C)C)CC1`, for which the values for the IC50 in assay [1] and in assay [2] were under 10 µM and over 30 µM, respectively.
`NC/C(=C\F)COc1ccc(S(=O)(=O)C[C@H]2CC[C@@H](O)CC2)cc1`: the IC50 in assay [1] and in assay [2] was under 10 µM throughout.
Regarding `NC/C(=C\F)COc1ccc(S(=O)(=O)C[C@@H]2CCCO2)cc1`, the 50% inhibitory concentration (IC50) in assay [1] is under 10 µM; in assay [2], over 30 µM.
Turning to `NC/C(=C\F)COc1ccc(S(=O)(=O)C[C@H]2CCCO2)cc1`, the IC50 in assay [1] is under 10 µM; in assay [2], over 30 µM.
On the same counts, the results for `NC/C(=C\F)COc1ccc(S(=O)(=O)CC2CCOCC2)cc1F` are under 10 µM and under 10 µM.
With `CC1(C(=O)N2CCN(CS(=O)(=O)c3ccc(OC/C(=C/F)CN)cc3)C(=O)C2)CCC1`, in assay [1], the IC50 was under 10 µM.
With `CN(C)C(=O)C12CCC(CS(=O)(=O)c3ccc(OC/C(=C/F)CN)cc3)(CC1)CC2`, the IC50 in assay [2] was over 30 µM.
As to `NC/C(=C\F)COc1ccc(S(=O)(=O)CC2(O)CCOCC2)cc1`, the results for the IC50 in assay [1] and in assay [2] were under 10 µM and over 30 µM, respectively.
On to `NC/C(=C\F)COc1ccc(S(=O)(=O)Cc2ccc(C(=O)NC3CCC3)c(C(F)(F)F)c2)cc1`, for which the IC50 in assay [2] is over 30 µM.
In the case of `CCN(CC(C)(C)CS(=O)(=O)c1ccc(OC/C(=C/F)CN)cc1)C(=O)C(C)C`, in assay [2], the IC50 was over 30 µM.
In the case of `NC/C(=C\F)COc1ccc(S(=O)(=O)C[C@@H]2CCOC2)cc1`, the half-maximal inhibitory concentration (IC50) was under 10 µM in assay [1] and 10 to 30 µM in assay [2].
As for `COCS(=O)(=O)c1ccc(OC/C(=C/F)CN)cc1`, in assay [2], the IC50 is over 30 µM.
Consider `CC(C)C(=O)N1CCC(CS(=O)(=O)c2ccc(OC/C(=C/F)CN)cc2)C1` (configuration not stated), for which, in assay [1], the concentration for half-maximal inhibition (IC50) was over 30 µM.
Regarding `NC/C(=C\F)COc1ccc(S(=O)(=O)CC2CCN(C(=O)c3ccc(F)cc3)CC2)cc1`, the IC50 in assay [1] and in assay [2] was under 10 µM each time.
